≈ marks a conversion by molar mass, not a printed value.
Key:
[1] = Inhibition of recombinant mouse GALK1 using ATP as substrate incubated for 1 hr and measured by Kinase-Glo assay
[2] = Stability of compound in rat microsomes assessed as half-life; type: ADME, Microsome
[3] = Kinetic aqueous solubility of the compound; type: physicochemical; conditions: buffer; read-out: Kinetic_solubility

| SMILES | IC50 ([1]; read-out: IC50) [µM] | half-life [2] [min] | solubility kinetic [3] [µg/mL] | IC50 [1] |
| --- | --- | --- | --- | --- |
| CC1=C(C(=O)NCc2cnn(C)c2)C(c2ccc(C)cc2Cl)N=C(Nc2nc3cnccc3o2)N1 (centres undefined) | 12.2 | 5.12 | > 49 |  |
| CC1=C(C(=O)Nc2ccccn2)C(c2ccccc2Cl)N=C(Nc2nc3cccc(N)c3o2)N1 (centres undefined) | 19.3 | > 30 | < 1 |  |
| CC1=C(C(=O)Nc2cccc(C(N)=O)c2)C(c2ccccc2Cl)N=C(Nc2nc3ccccc3o2)N1 (centres undefined) | 17.2 | > 30 | < 1 |  |
| CC(C)CC1=C(C(=O)Nc2nncs2)C(c2ccccc2Cl)N=C(Nc2nc3ccccc3o2)N1 (centres undefined) | 17.2 | > 30 | < 1 |  |
| CC1=C(C(=O)Nc2nncs2)C(c2n[nH]cc2Cl)N=C(Nc2nc3ccccc3o2)N1 (centres undefined) | 54.4 | > 30 | 34.6 (≈ 75.9 µM) |  |
| CC1=C(C(=O)Nc2nncs2)C(c2nn(C)cc2Cl)N=C(Nc2nc3ccccc3o2)N1 (centres undefined) | 17.2 | > 30 | 12.8 (≈ 27.2 µM) |  |
| CC1=C(C(=O)Nc2nncs2)C2(CCOC2)N=C(Nc2nc3ccccc3o2)N1 (centres undefined) |  | > 30 | 37.9 (≈ 92.1 µM) | Not Active |
| CC1=C(C(=O)Nc2ncc(CO)s2)C(c2ccccc2Cl)N=C(Nc2nc3ccccc3o2)N1 (centres undefined) | 19.3 | > 30 | < 1 |  |
| CC1=C(C(=O)NCc2cnn(C)c2)[C@@H](c2ccc(C)cc2Cl)N=C(Nc2nc3cccc(N)c3o2)N1 | 30.6 | 7.87 | 21.9 (≈ 43.4 µM) |  |
| CC1=C(C(=O)Nc2nnc(-c3ccncc3)s2)C(c2ccccc2Cl)N=C(Nc2nc3ccccc3o2)N1 (centres undefined) | 19.3 | > 30 | < 1 |  |
| CC1=C(S(C)(=O)=O)C(c2ccccc2Cl)N=C(Nc2nc3ccccc3o2)N1 (centres undefined) | 19.3 | 9.37 | < 1 |  |
| CC1=C(C(=O)Nc2cc(C(=O)O)ccn2)C(c2ccc(-c3ccc(C(F)(F)F)cc3)cc2Cl)N=C(Nc2nc3ccc(F)cc3o2)N1 (centres undefined) | 21.7 | > 30 | 8.1 (≈ 12.2 µM) |  |

Second part, the molecule after the results:

| IC50 ([1]; read-out: IC50) [µM] | half-life [2] [min] | solubility kinetic [3] [µg/mL] | IC50 [1] | SMILES |
| --- | --- | --- | --- | --- |
| 1.93 | > 30 | 5.9 (≈ 10.9 µM) |  | CC1=C(C(=O)NCc2cnn(C)c2)C(c2ccc(Cl)cc2Cl)N=C(Nc2nc3ccc(F)c(N)c3o2)N1 (centres undefined) |
| 9.68 | 17.7 | < 1 |  | COC(=O)c1ccc(NC(=O)C2=C(C)NC(Nc3nc4ccccc4o3)=NC2c2ccccc2Cl)cc1 (centres undefined) |
| 9.68 | > 30 | < 1 |  | CC1=C(C(=O)Nc2cc(CO)ccn2)C(c2ccccc2Cl)N=C(Nc2nc3ccccc3o2)N1 (centres undefined) |
| 4.85 | 2.66 | < 1 |  | CC1=C(C(=O)NCc2c(C)nn(C)c2C)C(c2ccc(C)cc2Cl)N=C(Nc2nc3ccc(F)cc3o2)N1 (centres undefined) |
| 5.44 | 18.4 | < 1 |  | COC(=O)c1ccnc(NC(=O)C2=C(C)NC(Nc3nc4ccccc4o3)=NC2c2ccccc2Cl)c1 (centres undefined) |
| 6.85 | 20 | < 1 |  | COC(=O)c1ccnc(NC(=O)C2=C(C)NC(Nc3nc4ccccc4o3)=N[C@H]2c2ccccc2Cl)c1 |
| 4.32 | 5.62 | 46.1 (≈ 96.9 µM) |  | CC1=C(C(=O)NCc2cn(C)cn2)[C@H](c2ccccc2Cl)N=C(Nc2nc3ccccc3o2)N1 |
| 10.9 | > 30 | < 1 |  | COC(=O)c1cc(NC(=O)C2=C(C)NC(Nc3nc4ccccc4o3)=NC2c2ccccc2Cl)ccn1 (centres undefined) |
| 4.32 | 1.74 | < 1 |  | COC(=O)c1ccccc1CNC(=O)C1=C(C)NC(Nc2nc3ccccc3o2)=NC1c1ccccc1Cl (centres undefined) |
| 6.85 | 17.8 | 15.6 (≈ 29.7 µM) |  | CC1=C(C(=O)NCc2cnn(C)c2)C(c2ccc(Cl)cc2Cl)N=C(Nc2nc3cccc(N)c3o2)N1 (centres undefined) |
| 8.63 | 8.49 | < 1 |  | COC(=O)c1ccc(CNC(=O)C2=C(C)NC(Nc3nc4ccccc4o3)=NC2c2ccccc2Cl)cc1 (centres undefined) |

Reference: ChEMBL document CHEMBL5050861 (2021)
